Assay results published in US7387800B2, “Sesquiterpenoid derivatives having adipocyte differentiation inhibitory effect” (Meiji Dairies Corporation, priority 2001, dated 2008).

System: Mouse adipocyte precursors (3T3-L1)
Assay: Inhibition of insulin-induced adipocyte differentiation, acetic acid (14C-CH3COOH) incorporation activity as index
Assay type: cell-based
Settings: 3T3-L1 differentiation into adipocytes; compound added with insulin; FIG. 4
Method: Whether Calea extract solution has an inhibitory activity on adipocyte differentiation induced by the addition of insulin was investigated. First, the aerial portion of Calea (170 g) was ground, and extracted by heated reflux using acetone (24 hours×2 times) to produce Calea extract solution. The extracted solution was filtered, and then concentrated under reduced pressure to yield a concentrated extract. Mouse adipocyte precursors (3T3-L1) obtained from Human Science Research Resources Bank was used as the adipocyte in the present experiment. Normal successive cultivation was performed using Dulbecco's modified Eagle MEM medium containing 10% calf serum (CS) at 37° C. in the presence of 5% CO2. […]
In the system where acetic acid incorporation activity was used as an index, first the cells were placed into a 24-well plate at a density of 4.2×10^4 cell/well. […] Using a liquid scintillation counter, radioactivity of the isopropanol fraction (adipose component) was measured. […] Then, protein quantification was performed according to the Bradford dye-binding method. […]

C=C(C)C(=O)O[C@H]1[C@H]2C(=C)C(=O)O[C@@H]2C[C@@H](C)[C@@H]2O[C@@H]2C(=O)[C@@](C)(O)[C@@H]1OC(=O)C(=C)C [compound 6]
incorporation inhibitory activity (acetic acid incorporation), result in words: high incorporation inhibitory activity

C=C(C)C(=O)O[C@H]1[C@H]2C(=C)C(=O)O[C@@H]2C[C@@H](C)/C=C\C(=O)[C@@](C)(O)[C@@H]1OC(=O)C(=C)C [compound 11]
incorporation inhibitory activity (acetic acid incorporation), result in words: high incorporation inhibitory activity
